According to US20230072790A1, “COMPOUNDS AND FORMULATIONS FOR PROTECTIVE COATINGS” (Apeel Technology, Inc., priority 2021, published 2023):

Key:
[1] = X-ray scattering of thin-film coatings (Example 10); format: physicochemical; conditions: 95 wt% sorbitan ester / 5 wt% sodium stearate; film cast from 30 g/L aqueous solution, dried 40° C. 4 hours
Excerpt: As used herein, “lamellar structure” refers to a structure comprising lamella(e) vertically stacked adjacent to each other and held together by intermolecular forces. As used herein, “lamella(e)” refers to one lamella or two or more lamellae, that is, one or more discrete layers of molecules, respectively. In some embodiments, the molecules present in the lamella(e) are ordered (e.g., aligned, as in an open bilayer). The distance between a surface of a lamella and a surface of an adjacent lamella that is facing the same direction is referred to herein as “interlayer spacing” or “periodic spacing”. Interlayer spacing between two lamellae is determined by (1) obtaining an out-of-plane X-ray scattering image of a coating, (2) determining the scattering vector (q) of the peak corresponding to the lamellar structure, and (3) using Bragg’s equation below, determine the interlayer spacing (d).
Coating agents were applied to the surface of a plastic substrate, which acts as a hydrophilic surface when exposed to air. An X-ray scattering image of the applied coat was obtained to identify characteristics of the coating.
Specifically, a coating agent of sorbitan monostearate (95 wt%) and sodium stearate (5 wt%) was applied to a substrate as a thin-film. The films were drop cast from a 30 g/L aqueous solution and dried at 40° C. for 4 hours. […] “LAM” refers to lamellar or bilayer morphology. […]

California avocados = experiment: Respiration factor of coated California avocados (Example 11); format: in vivo, avocado; conditions: 30 g/L sorbitan ester
Excerpt: (§1) As used herein, the term “respiration rate” refers to the rate at which the product releases gas, such as CO2. This rate can be determined from the volume of gas (e.g., CO2) (at standard temperature and pressure) released per unit time per unit weight of the product. The respiration rate can be expressed as ml gas/kg·hour. The respiration rate of the product can be measured by placing the product in a closed container of known volume that is equipped with a sensor, such as a CO2 sensor, recording the gas concentration within the container as a function of time, and then calculating the rate of gas release required to obtain the measured concentration values.
(§2) As used herein, the term “respiration factor” is defined as the ratio of the average gas diffusion (e.g., CO2 release) of uncoated produce (measured for a control group) to the average gas diffusion of the corresponding tested produce (e.g., coated produce) over a given time.
FIG. 17 is a graph showing mass loss factors for California avocados. The Untreated group of avocadoes was not treated. A second group of avocados was treated with 15 g/L of Treatment C. A third group of avocados was treated with 30 g/L of Treatment C. A fourth group of avocados was treated with 30 g/L sorbitan monopalmitate (MP) (100 wt%). A fifth group of avocados was treated with a 30 g/L sorbitan monostearate (MS). […]

unwaxed pixie oranges = experiment: Mass loss factor of coated unwaxed pixie oranges (Example 13); format: in vivo, orange; conditions: 2 g/L sorbitan monolaurate added to 50 g/L 95/5 monostearate/sodium stearate, bowl dip, 70° C.
Method: (§3) As used herein, the term “mass loss factor” is defined as the ratio of the average mass loss rate of uncoated produce (measured for a control group) to the average mass loss rate of the corresponding tested produce (e.g., coated produce) over a given time.
FIG. 21 is a graph showing mass loss factors for unwaxed pixie oranges (“pixies”). One group of pixies was not treated. A second group of pixies was treated with 50 g/L of Treatment C. A third group of pixies was treated with 50 g/L of Treatment C and 2 g/L of a wetting agent (WAG). A fourth group of pixies was treated with 50 g/L of a 95/5 mixture of monostearate/sodium stearate and 2 g/L sorbitan monolaurate. The coatings were applied using a bowl dip method and were dried at a temperature of 70° C. […] The pixies were mostly dry (~80%) coming out of the heat tunnel.

Mexican avocados [2] = experiment: Respiration factor of coated Mexican avocados (Example 12); format: in vivo, avocado; conditions: day 1
Excerpt: as §1, §2
FIG. 19 is a graph showing mass loss factors (MLF) for Mexican avocados. A first group of avocados was not treated. A second group of avocados was treated with 20 g/L of Treatment C. A third group of avocados was treated with 40 g/L of Treatment C. The monoglyceride coatings were mixed with a high shear mixer. A fourth group of avocados was treated with 20 g/L of a mixture of sorbitan monostearate (94 wt%) and sodium stearate (6 wt%). […]

Mexican avocados [3] = experiment: Mass loss factor of coated Mexican avocados (Example 12); format: in vivo, avocado; conditions: brush bed, dried 70° C., sorbitan monostearate as 94 wt% with 6 wt% sodium stearate
Method: as §3
FIG. 19 is a graph showing mass loss factors (MLF) for Mexican avocados. A first group of avocados was not treated. A second group of avocados was treated with 20 g/L of Treatment C. A third group of avocados was treated with 40 g/L of Treatment C. The monoglyceride coatings were mixed with a high shear mixer. A fourth group of avocados was treated with 20 g/L of a mixture of sorbitan monostearate (94 wt%) and sodium stearate (6 wt%). A fifth group of avocados was treated with 40 g/L of a mixture of sorbitan monostearate (94 wt%) and sodium stearate (6 wt%). The sorbitan monostearate coatings were mixed with blenders. The coatings were applied using a brush bed and were dried at a temperature of 70° C. […] The MLF of 20 g/L of […] monostearate/sodium stearate was 1.49 and the MLF of the 40 g/L 95/5 monostearate/sodium stearate was 2.24.

| periodicity of alternating bilayers [1] | Substance | respiration factor compared with 95/5 monostearate/sodium stearate at 30 g/L (California avocados) | mass loss factor increase compared to the untreated substrates (unwaxed pixie oranges) | RF (respiration factor) (Mexican avocados [2]; 20 g/L) | RF (respiration factor) (Mexican avocados [2]; 40 g/L) | MLF (mass loss factor) (Mexican avocados [3]; 20 g/L) | MLF (mass loss factor) (Mexican avocados [3]; 40 g/L) |
| --- | --- | --- | --- | --- | --- | --- | --- |
| 5.6 nm | sorbitan monopalmitate | higher | – | – | – | – | – |
| – | sorbitan monolaurate | – | 3.56 times | – | – | – | – |
| 5.5 nm | sorbitan monostearate | comparable | – | 1.15 | 1.25 | 1.83 | 2.32 |
